IC50 data for ten compounds are collected here from patent US11655235B2, “Pyrrolidine and piperidine compounds” (YUHAN CORPORATION, priority 2019, dated 2023).

The structures appear in SMILES notation. Like-named read-outs stand apart in the source and are kept apart here.

Common to all, as to type: biochemical
The target of one experiment is T1, recombinant human DPP7 (Homo sapiens, UniProt Q9UHL4).
T1 construct: purchased R&D Systems
Kind of experiment: DPP7 inhibition, fluorogenic substrate Lys-Pro-AMC. The essentials:
(§1)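 Enzyme per reaction: 50 ng DPP9, 20 ng DPP8, 10 ng each DPP7 and PREP. Compounds were serially diluted (8 points, up to 0.5% DMSO) and incubated at 25 °C.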

A further experiment has as its target T2, recombinant human DPP8 (Homo sapiens, UniProt Q6V1X1).
T2 construct: purchased PBS Bioscience
Description: DPP8 inhibition, fluorogenic substrate Z-Ala-Pro-AMC. The protocol: The compounds according to the present technology were evaluated in terms of the inhibitory effect on the activity of dipeptidyl peptidases including FAP by using a substrate producing fluorescent substances upon enzymatic decomposition. The test was conducted at 25° C. to get a final reaction volume of 100 μL in a 96 black well plate. […] Briefly, the test compounds were dissolved in dimethyl sulfoxide (DMSO) at a concentration of 20 mM and then subjected to serial dilution, thereby creating an 8 point curve. As for the control group, a 6 point curve created by serial dilution of Talabostat in the same buffer solution was used. Fluorescence intensity was measured using a microplate reader (Flexstation3, Molecular Devices) under the wavelength condition exciting at 380 nm and reading the emission at 460 nm. The inhibitory effect of the test compounds was measured as a decrease (%) in the signal rate as compared to the control group without any inhibitor. Data was fixed to a logistic model with four variables and IC50 value was calculated using GraphPad Prism program. As for recombinant human DPP4 (R&D Systems), 25 mM tris (pH 8.0) buffer as a buffer solution and H-Gly-Pro-AMC (Bachem) as a substrate were used. As for recombinant human DPP7 (R&D Systems), 25 mM MES (pH 6.0) buffer as a buffer solution and Lys-Pro-AMC (Bachem) as a substrate were used. As for recombinant human DPP8 (PBS Bioscience), as a buffer solution, a 10 mM tris (pH 7.4) buffer comprising 10 mM of magnesium chloride and 0.05% of Tween 20, and Z-Ala-Pro-AMC (BPS Bioscience) as a substrate were used. As for recombinant human DPP9 (R&D Systems), a 25 mM tris (pH 8.0) buffer as a buffer solution and H-Gly-Pro-AMC (Bachem) as a substrate were used. As for recombinant human PREP (R&D System), as a buffer solution, a 25 mM tris (pH 7.5) buffer comprising 250 mM sodium chloride and 2.5 mM DTT (Dithiolthreitol), and Z-Gly-Pro-AMC (Bachem) as a substrate were used. The evaluation was made by using 10 ng of DPP4, PDD7, and PREP, 20 ng of DPP8, and 50 ng of DPP9 based on the final reaction. In the evaluation of DPP4, the test compounds were subjected to serial dilution in a buffer under the condition containing up to 0.1% of DMSO. In the evaluation of DPP7, DPP8, DPP9, and PREP, the test compounds were subjected to serial dilution in each buffer under the condition containing up to 0.5% of DMSO.

In experiment [1] the target is T3, Recombinant human FAP (Homo sapiens, UniProt Q12884).
T3 construct: purchased R&D systems
T3 sequence (Q12884 1-760): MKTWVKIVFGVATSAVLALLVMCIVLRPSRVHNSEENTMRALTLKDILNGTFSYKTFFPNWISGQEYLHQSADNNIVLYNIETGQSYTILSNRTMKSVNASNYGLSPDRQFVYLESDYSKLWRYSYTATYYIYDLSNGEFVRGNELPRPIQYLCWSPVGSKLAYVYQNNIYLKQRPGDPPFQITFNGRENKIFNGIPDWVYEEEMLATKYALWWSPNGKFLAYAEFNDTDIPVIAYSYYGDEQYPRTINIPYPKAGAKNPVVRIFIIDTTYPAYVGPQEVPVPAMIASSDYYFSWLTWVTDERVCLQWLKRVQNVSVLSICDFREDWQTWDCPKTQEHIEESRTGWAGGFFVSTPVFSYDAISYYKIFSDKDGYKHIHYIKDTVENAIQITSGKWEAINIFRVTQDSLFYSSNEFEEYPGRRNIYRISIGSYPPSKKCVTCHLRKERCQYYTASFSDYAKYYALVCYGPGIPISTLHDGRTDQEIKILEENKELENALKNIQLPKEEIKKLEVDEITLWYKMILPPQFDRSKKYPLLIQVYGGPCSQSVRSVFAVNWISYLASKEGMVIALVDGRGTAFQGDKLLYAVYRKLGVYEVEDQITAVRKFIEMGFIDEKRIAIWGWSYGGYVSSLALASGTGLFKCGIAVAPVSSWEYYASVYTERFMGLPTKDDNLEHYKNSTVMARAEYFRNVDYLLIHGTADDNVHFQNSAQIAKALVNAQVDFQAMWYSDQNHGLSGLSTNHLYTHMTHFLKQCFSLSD
Kind of experiment: FAP inhibition, fluorogenic substrate Z-Gly-Pro-AMC. The essentials:
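Recombinant human FAP, 10 ng per reaction, in 50 mM Tris pH 7.5 with 1 M NaCl and 1 mg/ml BSA at 25° C; substrate Z-Gly-Pro-AMC, ≤0.1% DMSO. AMC fluorescence read at ex 380/em 460 nm; % signal-rate decrease vs no-inhibitor control, 8-point curves fitted to a four-parameter logistic for IC50.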

Another experiment addresses T4, recombinant human DPP9 (Homo sapiens, UniProt Q86TI2).
T4 construct: purchased R&D Systems
Description: DPP9 inhibition, fluorogenic substrate H-Gly-Pro-AMC. The essentials:
as §1

Another experiment deals with T5, recombinant human PREP (Homo sapiens, UniProt P48147).
T5 construct: purchased R&D System
T5 sequence (P48147 1-710): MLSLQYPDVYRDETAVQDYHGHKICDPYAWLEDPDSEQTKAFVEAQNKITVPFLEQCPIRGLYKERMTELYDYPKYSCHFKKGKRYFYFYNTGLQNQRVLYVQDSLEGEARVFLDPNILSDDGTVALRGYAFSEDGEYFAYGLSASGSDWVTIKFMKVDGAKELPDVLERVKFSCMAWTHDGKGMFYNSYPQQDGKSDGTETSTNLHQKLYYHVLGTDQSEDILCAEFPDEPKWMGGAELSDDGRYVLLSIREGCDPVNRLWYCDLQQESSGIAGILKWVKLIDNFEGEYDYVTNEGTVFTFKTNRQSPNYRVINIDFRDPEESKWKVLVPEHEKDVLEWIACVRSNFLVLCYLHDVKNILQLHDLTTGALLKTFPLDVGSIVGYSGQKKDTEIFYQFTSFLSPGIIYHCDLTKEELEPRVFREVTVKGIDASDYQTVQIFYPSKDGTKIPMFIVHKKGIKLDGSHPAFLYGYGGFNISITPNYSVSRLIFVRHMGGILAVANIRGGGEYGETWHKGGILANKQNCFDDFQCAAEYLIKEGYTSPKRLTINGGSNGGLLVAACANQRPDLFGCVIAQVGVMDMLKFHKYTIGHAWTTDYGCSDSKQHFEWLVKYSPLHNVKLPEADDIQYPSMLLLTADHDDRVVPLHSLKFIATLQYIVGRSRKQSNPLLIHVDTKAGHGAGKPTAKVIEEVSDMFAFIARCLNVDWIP
Kind of experiment: PREP inhibition, fluorogenic substrate Z-Gly-Pro-AMC. The conditions noted are these: Inhibitory Activity (IC50, nM) PREP. The essentials: as §1

For the next experiment, the target named is DPP4 (Homo sapiens, UniProt P27487). Description: DPP4 inhibition, fluorogenic substrate H-Gly-Pro-AMC. Further details: purchased R&D Systems. Conditions: recombinant human DPP4.
DPP4, sequence (P27487 whole entry): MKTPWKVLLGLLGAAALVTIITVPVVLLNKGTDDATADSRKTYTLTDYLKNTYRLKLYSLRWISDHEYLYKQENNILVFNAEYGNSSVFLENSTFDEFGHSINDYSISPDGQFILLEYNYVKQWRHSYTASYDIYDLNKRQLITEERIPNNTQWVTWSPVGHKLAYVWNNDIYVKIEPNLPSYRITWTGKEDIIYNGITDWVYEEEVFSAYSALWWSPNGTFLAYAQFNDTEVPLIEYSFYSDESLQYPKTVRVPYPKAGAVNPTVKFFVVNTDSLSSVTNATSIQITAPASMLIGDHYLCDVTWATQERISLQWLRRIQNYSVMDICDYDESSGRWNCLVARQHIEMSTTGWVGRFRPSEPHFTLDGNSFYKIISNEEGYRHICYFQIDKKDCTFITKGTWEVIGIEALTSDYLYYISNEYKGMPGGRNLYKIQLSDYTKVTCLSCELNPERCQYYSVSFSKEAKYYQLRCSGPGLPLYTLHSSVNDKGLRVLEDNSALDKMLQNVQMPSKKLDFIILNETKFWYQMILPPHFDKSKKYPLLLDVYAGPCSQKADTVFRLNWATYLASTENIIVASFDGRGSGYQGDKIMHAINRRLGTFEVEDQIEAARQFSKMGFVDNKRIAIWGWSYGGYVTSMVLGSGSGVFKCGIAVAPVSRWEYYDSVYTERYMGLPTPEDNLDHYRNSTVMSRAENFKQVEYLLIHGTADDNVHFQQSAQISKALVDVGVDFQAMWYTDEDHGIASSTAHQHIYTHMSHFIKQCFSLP
In experiment [2] the target is T3, Recombinant human FAP. Kind of experiment: FAP FRET assay, FGF21-sequence FRET peptide substrate. The conditions noted are these: FRET peptide with human FGF21 sequence, 6 μM, 37° C. The essentials: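 Recombinant human FAP, 10 ng per reaction, in 50 mM HEPES pH 7.2 with 150 mM NaCl, 0.1 mg/ml BSA, 1 mM EDTA; HyLite Fluor 488/QXL 520 FRET peptide of human FGF21 sequence at 6 μM final, ≤0.1% DMSO, 37° C. IC50 from 8-point curves by four-parameter logistic fit.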

[3] abbreviates: recombinant human FAP, substrate Z-Gly-Pro-AMC.
Setting [4] is: 25° C., Z-Gly-Pro-AMC substrate.

T4 sequence (Q86TI2 whole entry): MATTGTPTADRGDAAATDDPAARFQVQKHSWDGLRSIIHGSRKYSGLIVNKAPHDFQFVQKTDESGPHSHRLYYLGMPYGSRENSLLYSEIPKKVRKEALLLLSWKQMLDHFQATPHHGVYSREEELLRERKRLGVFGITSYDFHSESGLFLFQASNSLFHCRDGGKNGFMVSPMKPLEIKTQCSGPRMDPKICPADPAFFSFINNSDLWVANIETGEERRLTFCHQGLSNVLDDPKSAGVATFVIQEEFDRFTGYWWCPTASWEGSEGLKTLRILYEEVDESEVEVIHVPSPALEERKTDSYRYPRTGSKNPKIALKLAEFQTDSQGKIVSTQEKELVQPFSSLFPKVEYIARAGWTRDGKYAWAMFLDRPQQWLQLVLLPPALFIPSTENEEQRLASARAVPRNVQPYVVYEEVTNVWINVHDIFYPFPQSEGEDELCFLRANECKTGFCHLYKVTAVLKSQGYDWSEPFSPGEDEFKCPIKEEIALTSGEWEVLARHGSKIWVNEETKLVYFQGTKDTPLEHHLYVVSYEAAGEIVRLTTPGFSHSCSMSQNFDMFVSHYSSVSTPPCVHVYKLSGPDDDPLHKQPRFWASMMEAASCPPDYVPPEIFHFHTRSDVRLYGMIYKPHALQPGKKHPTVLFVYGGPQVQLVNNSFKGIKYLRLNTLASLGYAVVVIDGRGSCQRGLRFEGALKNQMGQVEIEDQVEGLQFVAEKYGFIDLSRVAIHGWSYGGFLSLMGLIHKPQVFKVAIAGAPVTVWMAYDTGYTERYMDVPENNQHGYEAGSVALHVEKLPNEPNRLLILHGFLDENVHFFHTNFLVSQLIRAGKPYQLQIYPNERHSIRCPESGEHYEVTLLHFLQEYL
T2 sequence (Q6V1X1 whole entry): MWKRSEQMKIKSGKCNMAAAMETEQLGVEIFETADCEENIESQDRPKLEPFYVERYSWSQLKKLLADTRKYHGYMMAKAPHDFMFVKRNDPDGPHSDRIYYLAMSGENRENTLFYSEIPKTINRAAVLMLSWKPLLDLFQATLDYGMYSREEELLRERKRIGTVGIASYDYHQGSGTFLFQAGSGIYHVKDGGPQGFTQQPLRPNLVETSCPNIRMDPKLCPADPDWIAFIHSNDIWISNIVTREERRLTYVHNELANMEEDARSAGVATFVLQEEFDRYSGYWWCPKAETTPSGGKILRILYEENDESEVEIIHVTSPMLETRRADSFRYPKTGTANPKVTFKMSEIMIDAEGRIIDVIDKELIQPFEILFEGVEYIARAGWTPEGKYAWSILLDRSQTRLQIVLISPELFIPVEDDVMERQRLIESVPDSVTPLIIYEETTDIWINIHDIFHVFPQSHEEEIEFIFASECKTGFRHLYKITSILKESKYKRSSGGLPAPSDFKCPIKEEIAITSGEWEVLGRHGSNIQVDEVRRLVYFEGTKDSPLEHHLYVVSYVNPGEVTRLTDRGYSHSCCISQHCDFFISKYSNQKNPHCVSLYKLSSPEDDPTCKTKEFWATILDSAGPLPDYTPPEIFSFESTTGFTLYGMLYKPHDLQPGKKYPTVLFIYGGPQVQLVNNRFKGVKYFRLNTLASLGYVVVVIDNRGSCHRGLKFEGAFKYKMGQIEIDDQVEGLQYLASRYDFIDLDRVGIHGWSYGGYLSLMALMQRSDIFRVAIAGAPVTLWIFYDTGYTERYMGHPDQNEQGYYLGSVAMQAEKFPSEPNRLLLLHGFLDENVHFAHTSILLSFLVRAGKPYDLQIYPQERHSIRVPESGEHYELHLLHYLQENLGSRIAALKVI

The IC50 is the concentration needed to halve the response being measured. For the compound `N#C[C@@H]1C[C@H](F)CN1C(=O)CN1CC[C@@H](Nc2ccc3ncccc3c2)C1` [Example 167, (2S,4S)-4-fluoro-1-[2-[(3R)-3-(6-quinolylamino)pyrrolidin-1-yl]acetyl]pyrrolidine-2-carbonitrile], the IC50 amounted to 2040 nM on recombinant human DPP7 (recombinant human DPP7); 6.28 µM at recombinant human DPP8 (recombinant human DPP8); 1.4 nM at Recombinant human FAP [1] (setting [3]); 2.56 µM on recombinant human DPP9 (recombinant human DPP9); 5860 nM on recombinant human PREP (recombinant human PREP).
For `COc1ccc2ncc(N(C)[C@H]3CCN(CC(=O)N4CCC[C@H]4C#N)C3)cc2c1` [Example 152, (S)-1-(2-((S)-3-((6-methoxyquinolin-3-yl)(methyl)amino)pyrrolidin-1-yl)acetyl)pyrrolidine-2-carbonitrile], the IC50 on recombinant human DPP7 was 1660 nM; on recombinant human DPP8 (25° C., Z-Ala-Pro-AMC substrate) it was at least 100 µM; at Recombinant human FAP [1] (setting [4]) it was 2.5 nM; on recombinant human DPP9 (25° C., H-Gly-Pro-AMC substrate) it was 29 µM; on recombinant human PREP (setting [4]) it was 4130 nM.
Consider `N#C[C@@H]1C[C@H](F)CN1C(=O)CN1CCC(Nc2cncc3ccncc23)CC1` [Example 360, (2S,4S)-4-fluoro-1-[2-[4-(2,6-naphthyridin-4-ylamino)-1-piperidyl]acetyl]pyrrolidine-2-carbonitrile], for which the IC50 was 1340 nM at recombinant human DPP7 (recombinant human DPP7); at least 100 µM at recombinant human DPP8 (recombinant human DPP8); 1.9 nM on Recombinant human FAP [1] (setting [3]); 7.35 µM at recombinant human DPP9 (recombinant human DPP9); 16400 nM on recombinant human PREP (recombinant human PREP).
`COc1ccc2nc(C)cc(OC3CCN(CC(=O)N4C[C@@H](F)C[C@H]4C#N)CC3)c2c1` [Example 424, (2S,4S)-4-fluoro-1-[2-[4-[(6-methoxy-2-methyl-4-quinolyl)oxy]-1-piperidyl]acetyl]pyrrolidine-2-carbonitrile]: the IC50 on DPP4 was over 10000 nM; on recombinant human DPP7 (recombinant human DPP7) it was 3890 nM; at recombinant human DPP8 (recombinant human DPP8), 13.1 µM; at Recombinant human FAP [1] (setting [3]), 2.3 nM; at recombinant human DPP9 (recombinant human DPP9), 48.9 µM.
For the compound `N#C[C@@H]1C[C@H](F)CN1C(=O)CN1CCC(Nc2ccc(C(=O)Nc3ccccc3)c3ncccc23)CC1` [Example 394, 5-[[1-[2-oxo-2-[(2S,4S)-2-cyano-4-fluoro-pyrrolidin-1-yl]ethyl]-4-piperidyl]amino]-N-phenyl-quinoline-8-carboxamide], the IC50 on DPP4 turned out to be 2540 nM; at Recombinant human FAP [2] it was 1.3 nM; at recombinant human DPP7 (recombinant human DPP7), 361 nM; on recombinant human DPP9 (recombinant human DPP9), 1.09 µM; at recombinant human PREP (recombinant human PREP), 421 nM.
On to `N#C[C@@H]1C[C@H](F)CN1C(=O)CN1CC[C@@H](Nc2ccc(OC(F)(F)F)c3ncccc23)C1` [Example 186, (2S,4S)-4-fluoro-1-[2-[(3R)-3-[[8-(trifluoromethoxy)-5-quinolyl]amino]pyrrolidin-1-yl]acetyl]pyrrolidine-2-carbonitrile], for which the IC50 stood at 2220 nM at DPP4; 2.7 nM on Recombinant human FAP [2]; 2020 nM at recombinant human DPP7 (recombinant human DPP7); 4.41 µM on recombinant human DPP9 (recombinant human DPP9); 3590 nM at recombinant human PREP (recombinant human PREP).
With `CCOc1ccc(N[C@H]2CCN(CC(=O)N3CCC[C@H]3C#N)C2)c2cccnc12` [Example 274, (2S)-1-[2-[(3S)-3-[(8-ethoxy-5-quinolyl)amino]pyrrolidin-1-yl]acetyl]pyrrolidine-2-carbonitrile], the IC50 on DPP4 was found to be 11000 nM; at Recombinant human FAP [2] it was 4.4 nM; on recombinant human DPP7 (recombinant human DPP7), 960 nM; on recombinant human DPP9 (recombinant human DPP9), 5.55 µM; on recombinant human PREP (recombinant human PREP) it was 14900 nM.
The corresponding values for `N#C[C@@H]1C[C@H](F)CN1C(=O)CN1CC[C@H](Nc2cc(F)c3ncccc3c2)C1` [Example 278, (2S,4S)-4-fluoro-1-[2-[(3S)-3-[(8-fluoro-6-quinolyl)amino]pyrrolidin-1-yl]acetyl]pyrrolidine-2-carbonitrile] are 610 nM, 3.5 nM, 615 nM, 0.593 µM and 1280 nM.
For the compound `Cc1cc(N[C@H]2CCN(CC(=O)N3C[C@@H](F)C[C@H]3C#N)C2)cc2cccnc12` [Example 277, (2S,4S)-4-fluoro-1-[2-[(3S)-3-[(8-methyl-6-quinolyl)amino]pyrrolidin-1-yl]acetyl]pyrrolidine-2-carbonitrile], the half-maximal inhibitory concentration (IC50) stood at 1040 nM at DPP4; 3 nM at Recombinant human FAP [2]; 193 nM on recombinant human DPP7 (recombinant human DPP7); 0.74 µM on recombinant human DPP9 (recombinant human DPP9); 1230 nM on recombinant human PREP (recombinant human PREP).
For the compound `Cc1cccc2c(N[C@@H]3CCN(CC(=O)N4C[C@@H](F)C[C@H]4C#N)C3)ccnc12` [Example 190, (2S,4S)-4-fluoro-1-[2-[(3R)-3-[(8-methyl-4-quinolyl)amino]pyrrolidin-1-yl]acetyl]pyrrolidine-2-carbonitrile], the IC50 on DPP4 stood at 12500 nM; at Recombinant human FAP [2], 16.7 nM; at recombinant human DPP7 (recombinant human DPP7) it was 63.7 nM; on recombinant human DPP9 (recombinant human DPP9), 1.39 µM; at recombinant human PREP (recombinant human PREP), 1250 nM.
